# In patent US20110184025A1, “Methods and Compositions Using Immunomodulatory Compounds for the Treatment and Management of Spirochete and Other Obligate Intracellular Bacterial Diseases” (priority 2006, published 2011):
# Experiments:
# IL-2 = assay: Augmentation of IL-2 production following TCR activation of PBMC; assay type: cell-based
# IFN-γ = assay: Augmentation of IFN-γ production following TCR activation of T-cells; assay type: cell-based
# IL-10 = assay: LPS-stimulated production of IL-10 by PBMC; assay type: cell-based
# Beagle dogs = assay: Cardiovascular and respiratory function in anesthetized dogs; settings: anesthetized Beagle dogs, 2, 10 and 20 mg/kg infusion via jugular vein, all doses
# T-cells = assay: Stimulation of T-cell proliferation following primary induction by TCR activation; assay type: cell-based
# [1] = Form A: among anhydrous polymorphs; Form E: in aqueous solvent systems; cited from earlier work
SMILES,Potency relative to thalidomide in augmenting production of IL-2 (IL-2),Potency relative to thalidomide in augmenting production of IFN-γ (IFN-γ),Effect on production of IL-10 by PBMC (IL-10),Cardiovascular and respiratory changes compared to vehicle control (Beagle dogs),Potency relative to thalidomide in stimulating proliferation of T-cells (T-cells),Relative stability of polymorph [1]
Nc1cccc2c1CN(C1CCC(=O)NC1=O)C2=O (stereo not shown),50-100 times,50-100 times,increased production,minimal,50-100 times,
"Nc1cccc2c1CN(C1CCC(=O)NC1=O)C2=O (stereo not shown) [Form A, 3-(4-amino-1-oxo-1,3 dihydro-isoindol-2-yl)-piperidene-2,6-dione]",,,,,,most thermodynamically stable anhydrous polymorph
"Nc1cccc2c1CN(C1CCC(=O)NC1=O)C2=O (stereo not shown) [Form E, 3-(4-amino-1-oxo-1,3 dihydro-isoindol-2-yl)-piperidene-2,6-dione]",,,,,,most stable form
